# “Also recorded” adds a separate entry of the source. Read-outs that look alike come from different tables or passages of the source.
# Legend:
# thymic epithelial cells [1] = test: Thymic epithelial cell (TEC) subsets by flow cytometry after drug-induced thymic damage; settings: for effect on TEC subsets: mice, i.p. treatment
# Description: (§1) Control mice were injected with the same volume of PBS.
# Control mice were given PBS alone.
# (§2) Mice were given either 20 mg/kg Dexamethasone (Lyppards, Australia) or the equivalent volume of PBS as a single i.p. injection.
# (§3) In all experiments, the final day of treatment was designated as Day 0. Mice were then humanely killed by CO2 asphyxiation at various timepoints.
# (§4) Each thymus was thoroughly cleaned of fat and connective tissue and its capsule nicked with fine scissors. Each thymus was then incubated at 37° C. for 10 minutes in 2 mL of 0.125% (w/v) Collagenase D with 500 μL of 0.1% (w/v) DNAse I (both from Roche, Germany) in RPMI-1640, with regular agitation. The supernatant was collected, kept on ice, and the digestion repeated using the remaining settled thymic fragments. After 3 digestions, the remaining aggregates were incubated for 10 minutes with 1 mL of 0.125% (w/v) Collagenase/Dispase (Roche, Germany) with 500 μL 0.1% (w/v) DNAse I in RPMI-1640. Cells from all supernatant fractions were then pooled and centrifuged at 472 gmax for 5 minutes, then resuspended in cold EDTA/FACS buffer (5 mM EDTA in PBS with 2% FCS and 0.02% NaN3). Cells were filtered through 100 μm mesh. Cell counts were performed using a Z2 Coulter Counter (Beckman Coulter USA).
# (§5) Cells were washed in cold EDTA/FACS buffer and 5×10^6 cells dispensed into 96 well round-bottom plates, Cells were suspended in 50 μL of a primary mAb (hybridoma supernatant or suboptimal dilution of purified antibody) or conjugate for 15 minutes at 4° C. in the dark, followed by a wash step (200 μL EDTA/FACS buffer, 1300 rpm centrifuge for 3 minutes). Secondary mAb were then added and incubated and cells were washed twice. For intracellular staining, cells were washed once in cold PBS then fixed and permeabilised using the BD Cytofix/Cytoperm kit (BD Biosciences, USA) according to the manufacturer's instructions. Cells were stained with 50 μL of primary antibody diluted in PermWash buffer for 30 mins, then washed in PermWash buffer and incubated with secondary antibody where required. Cells were washed in PermWash, then finally washed in FACS buffer, before being resuspended in 200 μL of FACS or EDTA/FACS buffer for acquisition.
# (§6) A FACScalibur and CellQuest software (BD Biosciences, USA) were used for flow cytometric analysis, using four fluorescent channels (FL1 for FITC, FL2 for PE, FL3 for CyChrome/PECy5, PerCP and PI, and FL4 for APC). All compensations were performed on single colour labelling of an appropriate cell sample containing both positive and negative populations. Exclusion of non-viable and haemopoietic cells was based on forward light scatter versus side light scatter and CD45 expression respectively.
# (§7) In all experiments, the final day of treatment was designated as Day 0. Mice were then humanely killed by CO2 asphyxiation at indicated timepoints.
# (§8) Briefly, thymi were agitated in RPMI-1640 to flush out thymocytes. After collecting supernatant, thymic fragments were incubated individually at 37° C. for 10 minutes in 2 mL of 0.125% (w/v) Collagenase D with 500 μL of 0.1% (w/v) DNAse I (both from Roche, Germany) in RPMI-1640, with regular agitation. The supernatant was collected, kept on ice, and the digestion repeated three times, followed by a final 10 minute digestion in 1 mL of 0.125% (w/v) Collagenase/Dispase (Roche, Germany) with 500 μL 0.1% (w/v) DNAse I in RPMI-1640. The supernatant fractions were then pooled and centrifuged, keeping each thymus separate, at 472 gmax for 5 minutes, and resuspended in cold EDTA/FACS buffer (5 mM EDTA in PBS with 2% FCS and 0.02% Sodium Azide). Cells were filtered through 100 μm mesh. Cell counts were performed using a Z2 Coulter Counter (Beckman Coulter USA).
# Aire = Aire expression in mTEC during thymic recovery
# Source text: Primary antibodies and lectins used were FITC-conjugated UEA-1 lectin (Silenus?), Ki67 (BD), PE-conjugated Ly51 (clone 6C3, Pharmingen) Ki67 (BD), I-A/I-E (BD), CD45 (LCA)(BD), PerCP Cy5.5 conjugated CD45 (BD), APC-conjugated I-A/I-E (Miltenyi), biotinylated CD31 (BD), and EpCAM (G8.8a, prepared in-house from a clone kindly donated by Dr. A. Fan) MTS15 hybridoma supernatant (prepared in-house), rat anti-mouse Aire (a kind gift from Dr. H. Scott). Secondary reagents used were FITC-conjugated anti-rat IgG2c, Streptavidin PerCPCy5.5 and Streptavidin APC.
# Antibodies and conjugates were obtained from BD Pharmingen (USA) unless otherwise indicated. […] Secondary antibodies used were anti-rat IgG2c (Southern Biotech, USA), anti-rat IgG2a (Southern Biotech, USA) Streptavidin PerCP Cy5.5 and Streptavidin APC, anti-rabbit IgG-Alexa 488 (Invitrogen, USA).
# thymocytes [2] = test: Thymus cellularity and thymocyte subsets after drug-induced thymus depletion; settings: mice, i.p. treatment
# Description: (§9) Male and female C57B16 mice aged at 4-8 weeks were obtained from Monash Animal Services and housed under SPF conditions.
# as §1
# Control mice were given PBS alone.
# as §2, §3, §4
# (§10) Male and female C57B1/6J (B6) mice aged at 8-12 weeks were obtained from Monash Animal Services and housed under SPF conditions, in accordance with institutional guidelines.
# as §7, §8
# thymic epithelial cells [3] = settings: mouse, in vivo
# Description: as §1
# Control mice were given PBS alone.
# as §2, §3, §4, §5, §6, §7, §8
# thymocytes [4] = settings: mouse, in vivo
# Description: as §9, §1
# Control mice were given PBS alone.
# as §2, §3, §4, §10, §7, §8
# [5] = days after cessation of treatment
recovery of mTEC-hi (thymic epithelial cells [3]),return of TEC subsets to normal / homeostatic proportions (thymic epithelial cells [3]),return of cTEC to normal levels / homeostasis (thymic epithelial cells [3]),return of thymic cellularity to untreated levels (thymocytes [4]),"effect on Aire expression (Aire; mouse, in vivo)",Structure (SMILES),recovery of mTEC-lo cells to normal / untreated levels (thymic epithelial cells [1]; [5]),return of TEC subsets to normal / homeostatic proportions (thymic epithelial cells [1]; [5]),effect on TEC subsets (thymic epithelial cells [1]),effect on TEC subsets (thymic epithelial cells [1]; listed as cyclophosphamide),"effect on non-TEC stromal cells (thymic epithelial cells [1]; mouse, in vivo)",effect on Aire expression (Aire; by treatment),effect on all thymocyte subsets (thymocytes [2]),effect on thymic cellularity / thymic involution (thymocytes [2]),effect on all thymocyte subsets (thymocytes [4]; ip)
–,–,–,–,–,O=P1(N(CCCl)CCCl)NCCCO1 (centres unmarked) [Cyclophosphamide],≤ 28 days,28 days,mTEC-Hi were proportionally the major subset effected; also recorded: ablated all TEC subsets,TEC as a population are significantly reduced,not effected,almost completely abrogated,marked reduction in all thymocyte subsets,severe thymic involution; also recorded: greatest impact on thymic cellularity,–
≤ 14 days,≤ 28 days,≤ 7 days,≤ 14 days,almost completely abrogated,C[C@@H]1C[C@H]2[C@@H]3CCC4=CC(=O)C=C[C@]4(C)[C@@]3(F)[C@@H](O)C[C@]2(C)[C@@]1(O)C(=O)CO [Dexamethasone],–,–,–,–,–,–,–,–,marked reduction in all thymocyte subsets

# — patent US20100178700A1, “NOVEL THYMIC CELLULAR POPULATIONS AND USES THEREOF” (priority 2007, published 2010)
